Earlier results, collected in US20220323308A1, “DISSOLVABLE VITAMIN C AND RETINOL FILM” (Mary Kay Inc., priority 2019, published 2022).

Conditions: topical, when properly formulated

enhancement of endogenous ascorbic acid levels in the skin: up to twenty-fold
Structure (SMILES): O=C1O[C@H]([C@@H](O)CO)C(O)=C1O [ascorbic acid]
